The target of one data set is human SSTR2 (Homo sapiens (Human), UniProt P30874). Description: Functional cAMP assay for SSTR2 agonists. In kind it is cell-based. The note with it: inhibition of cAMP activities via human SST2R; CHO-K1 cells stably expressing human SSTR2. The procedure: General overview: All five SSTR subtypes are Gi coupled G-protein coupled receptors (GPCRs) that lead to decreases in intracellular cyclic AMP (cAMP) when activated by an agonist. […] Human SSTR2 intracellular cAMP assay is described below. The human SSTR1, 3, 4 and 5 assays follow the same protocol of SSTR2.
Sequence of human SSTR2 (P30874 whole entry): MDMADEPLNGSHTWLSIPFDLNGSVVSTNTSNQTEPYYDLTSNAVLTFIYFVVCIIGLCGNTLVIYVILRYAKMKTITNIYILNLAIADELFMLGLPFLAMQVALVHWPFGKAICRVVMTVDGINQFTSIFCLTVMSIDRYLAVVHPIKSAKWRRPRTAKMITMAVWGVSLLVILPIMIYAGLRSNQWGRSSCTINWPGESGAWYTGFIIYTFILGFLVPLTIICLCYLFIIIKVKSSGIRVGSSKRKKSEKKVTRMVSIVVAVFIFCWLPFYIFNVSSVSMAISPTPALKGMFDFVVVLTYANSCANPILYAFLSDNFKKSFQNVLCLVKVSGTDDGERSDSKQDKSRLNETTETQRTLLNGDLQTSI
The cells are cultured at 37° C., 5% CO2 and 95% humidity. […] The cells are incubated for 20 minutes at 37° C. […] The cells are treated with 50 μL of lysis buffer (HRTF cAMP kit, Cisbio). The lysate is transferred to 384-well plates and cAMP detection and visualization antibodies are added and incubated for 1-24 hours at room temperature. The time-resolved fluorescent signal is read with a Tecan M1000Pro multiplate reader. The intracellular cAMP concentrations are calculated by regression to a standard curve and are plotted vs. the concentration of the compounds of the invention and the EC50 of the compounds are calculated using standard methods. All data manipulations are in GraphPad Prism v6.
Background: Changes in cAMP serve as a functional read-out for many G protein-coupled receptors.

The nature of data set [1]: Solubility in water, FaSSGF and FaSSIF (slurry, HPLC). The format is physicochemical. Conditions: slurried at 37° C. for 2 days; for solubility at 2 days: 37 °C, thermodynamic from solid. The procedure: The salt forms were slurried in water, Fasted State Simulated Gastric Fluid (FaSSGF), and Fasted State Simulated Intestinal Fluid (FaSSIF) at 37° C. for 2 days. Part of the slurry was filtered using a […] syringe filter to recover the supernatant for solubility measurement and the rest was filtered to recover the remaining solid for XRPD analysis.
A calibration curve was developed for measuring concentration via HPLC. Compound A was added to a 100 mL volumetric flask and then filled to the volume with HPLC grade ethanol. […] A 30 minute gradient method with Solvent A as water with 0.1% TFA and solvent B as Methanol:Acetonitrile (1:1) was used.
The calibration correlation was used to measure the solubility of the salt forms. From the clear saturated solution, 0.1 mL liquid was transferred into a 10 mL vial and then filled to the volume with methanol. The solution was then directly injected into the HPLC.

Data set [2] in a line: Dynamic Vapor Sorption (DVS). The format is physicochemical. Conditions: for XRPD after DVS analysis: DVS between 2 and 95% RH. The procedure: Dynamic Vapor Sorption (DVS) was done using a DVS Intrinsic 1. The sample is loaded into a sample pan and suspended from a microbalance. A typical sample mass for DVS measurement is 25 mg. Nitrogen gas bubbled through distilled water provides the desired relative humidity.
A typical measurement includes the steps: • 1—Equilibrate at 50% RH • 2—50% to 2%. (50%, 40%, 30%, 20%, 10% and 2%) • a. Hold minimum of 5 mins and maximum of 60 minutes at each humidity. The pass criteria is less than 0.002% change • 3—2% to 95% (2%, 10%, 20%, 30%, 40%, 50%, 60%, 70%, 80%, 90%, 95%) • a. Hold minimum of 5 mins and maximum of 60 minutes at each humidity. The pass criteria is less than 0.002% change • 4—95% to 2% (95%, 80%, 70%, 60%, 50%, 40%, 30%, 20%, 10%, 2%) • a. Hold minimum of 5 mins and maximum of 60 minutes at each humidity. The pass criteria is less than 0.002% change • 5—2% to 50% (2%, 10%, 20%, 30%, 40%, 50%) • a. Hold minimum of 5 mins and maximum of 60 minutes at each humidity. The pass criteria is less than 0.002% change

Data set [3] can be described thus: Thermal study (TGA/DSC heating followed by XRPD). In kind it is physicochemical. The note with it: heated by TGA/DSC, cooled to RT. How it is done: Differential Scanning calorimetry (DSC) was done using a Mettler Toledo DSC3+. Aluminum crucible with cramped pinned lid were used. The heating rates are usually 10° C. per minute from 30 to 250° C. Thermogravimetric Analysis (TGA) was done using a Mettler Toledo TGA/DSC3+. Aluminum crucible with cramped pinned lid were used. The heating rates are usually 10° C. per minute from 30 to 250° C. […] These peaks were evaluated using thermal analysis and XRPD techniques. Compound A-HCl was heated to various temperatures using TGA/DSC followed by cooling to room temperature and analysis using XRPD. […] The following thermal treatments were performed: Sample 1: heated the salt to 100° C. and cooled to RT followed by XRPD; Sample 2: heated the salt to 150° C. and cooled to RT followed by XRPD; Sample 3: heated the salt to 200° C. and cooled to RT followed by XRPD; Sample 4: heated the salt to 250° C. and cooled to RT followed by XRPD; and Sample 5: heated the salt to 295° C. and cooled to RT followed by XRPD.

Where [4] appears, read: Fasted State Simulated Gastric Fluid (FaSSGF), fassgf or other biorelevant, Fasted State Simulated Gastric Fluid, read-out: Solubility in FaSSGF.
[5] abbreviates: Fasted State Simulated Intestinal Fluid (FaSSIF), fassif, Fasted State Simulated Intestinal Fluid, read-out: Solubility in FaSSIF.

In brackets after ≈: the same amount, converted by molar mass. Where a name gives a salt, the structure may show the parent alone. Read-outs that look alike come from different tables or passages of the source.

Broadly, the EC50 is the concentration giving half of the maximal effect. Low values mean greater potency, high ones weaker potency. Usually solubility stands for the dissolved amount per volume that the medium holds.

At human SSTR2, `O/N=C/c1cccc(-c2ccc3ncc(-c4cc(F)cc(F)c4)c(N4CC[C@@H]5NCCO[C@H]5C4)c3c2)c1O` [Compound 1-1, 2-{4-[(4aS,8aS)-octahydro-1H-pyrido[3,4-b][1,4]oxazin-6-yl]-3-(3,5-difluorophenyl)quinolin-6-yl}-6-[(1E)-(hydroxyimino)methyl]phenol] yielded a concentration for a half-maximal effect (EC50) of less than 10 nM.
Take `CO/N=C/c1ccnc(-c2ccc3ncc(-c4cc(C)cc(F)c4)c(N4CC[C@@H]5NCCO[C@H]5C4)c3c2)c1N` [Compound 1-2, 2-{4-[(4aS,8aS)-octahydro-1H-pyrido[3,4-b][1,4]oxazin-6-yl]-3-(3-fluoro-5-methylphenyl)quinolin-6-yl}-4-[(1E)-(methoxyimino)methyl]pyridin-3-amine]: on human SSTR2, the EC50 is less than 10 nM.
For the compound `CO/N=C/c1ccnc(-c2ccc3ncc(-c4cc(F)cc(Cl)c4)c(N4CC[C@@H]5NCCO[C@H]5C4)c3c2)c1N` [Compound 1-3, 2-{4-[(4aS,8aS)-octahydro-1H-pyrido[3,4-b][1,4]oxazin-6-yl]-3-(3-chloro-5-fluorophenyl)quinolin-6-yl}-4-[(1E)-(methoxyimino)methyl]pyridin-3-amine], the EC50 at human SSTR2 is less than 10 nM.
As for `Cc1cc(F)cc(-c2cnc3ccc(-c4nccc(C#N)c4N)cc3c2N2CC[C@@H]3NCCO[C@H]3C2)c1` [Compound 1-4, 2-{4-[(4aS,8aS)-octahydro-1H-pyrido[3,4-b][1,4]oxazin-6-yl]-3-(3-fluoro-5-methylphenyl)quinolin-6-yl}-3-aminopyridine-4-carbonitrile], on human SSTR2, the EC50 is less than 10 nM.
Regarding `N#Cc1ccnc(-c2ccc3ncc(-c4cc(F)cc(Cl)c4)c(N4CC[C@@H]5NCCO[C@H]5C4)c3c2)c1N` [Compound 1-5, 2-{4-[(4aS,8aS)-octahydro-1H-pyrido[3,4-b][1,4]oxazin-6-yl]-3-(3-chloro-5-fluorophenyl)quinolin-6-yl}-3-aminopyridine-4-carbonitrile], the EC50 on human SSTR2 was less than 10 nM.
On the same count and under the same terms, to `Nc1c(/C=N/O)ccnc1-c1ccc2ncc(-c3cc(F)cc(F)c3)c(N3CC[C@@H]4NCCO[C@H]4C3)c2c1` [Compound 1-6, 2-{4-[(4aS,8aS)-octahydro-1H-pyrido[3,4-b][1,4]oxazin-6-yl]-3-(3,5-difluorophenyl)quinolin-6-yl}-4-[(1E)-(hydroxyimino)methyl]pyridin-3-amine] belongs less than 10 nM; to `N#Cc1ccnc(-c2ccc3ncc(-c4cccc(F)c4)c(N4CC[C@@H]5NCCO[C@H]5C4)c3c2)c1N` [Compound 1-7, 2-{4-[(4aS,8aS)-octahydro-1H-pyrido[3,4-b][1,4]oxazin-6-yl]-3-(3-fluorophenyl)quinolin-6-yl}-3-aminopyridine-4-carbonitrile], less than 10 nM.
Take `Cc1ccnc(-c2ccc3ncc(-c4cccc(F)c4)c(N4CC[C@@H]5NCCO[C@H]5C4)c3c2)c1N` [Compound 1-8, 2-{4-[(4aS,8aS)-octahydro-1H-pyrido[3,4-b][1,4]oxazin-6-yl]-3-(3-fluorophenyl)quinolin-6-yl}-4-methylpyridin-3-amine]: the EC50 on human SSTR2 is less than 10 nM.
Same read-out and setting: for `Cc1cc(F)cc(-c2cnc3ccc(-c4cccc(C#N)c4O)c(F)c3c2N2CCC(N)CC2)c1` [Compound 1-9, 3-[4-(4-aminopiperidin-1-yl)-5-fluoro-3-(3-fluoro-5-methylphenyl)quinolin-6-yl]-2-hydroxybenzonitrile] the value was less than 10 nM.
`Cc1cc(F)cc(-c2cnc3cc(F)c(-c4cccc(C#N)c4O)cc3c2N2CCC(N)CC2)c1` [Compound 1-10, 3-[4-(4-aminopiperidin-1-yl)-7-fluoro-3-(3-fluoro-5-methylphenyl)quinolin-6-yl]-2-hydroxybenzonitrile] had an EC50 at human SSTR2 of less than 10 nM.
At human SSTR2, `N#Cc1cccc(-c2ccc3ncc(-c4cc(F)cc(F)c4)c(N4CCC(N)CC4)c3c2)c1O` [Compound A, 3-(4-(4-amino-piperidin-1-yl)-3-(3,5-difluoro-phenyl)-quinolin-6-yl)-2-hydroxy-benzonitrile] showed an EC50 of less than 10 nM. In addition, the values for the solubility at 2 days in data set [1] (setting [4]) and in data set [1] (setting [5]) were 2430 µg/mL (≈ 5320 µM) and 13 µg/mL (≈ 28.5 µM), respectively. Besides, in data set [1] (water, listed as Compound A (free base)), the “Solubility in Water” value was 5 µg/mL (≈ 11 µM).
Consider `N#Cc1cccc(-c2ccc3ncc(-c4cc(F)cc(F)c4)c(N4CCC(N)CC4)c3c2)c1O` [Compound A-2HCl, 3-[4-(4-amino-piperidin-1-yl)-3-(3,5-difluoro-phenyl)-quinolin-6-yl]-2-hydroxy-benzonitrile dihydrochloride], for which the “XRPD after DVS analysis” value in data set [2] is “unchanged”. For the same compound, the reversible water uptake was roughly 18 % w/w in data set [2] (between 2 and 95% RH); roughly 9 % w/w in data set [2] (between 15 and 75% RH). In addition, the “Solubility in FaSSGF” value in data set [1] (Fasted State Simulated Gastric Fluid, dihydrochloride) was 3690 µg/mL. Also, the “Solubility in FaSSIF” value in data set [1] (Fasted State Simulated Intestinal Fluid, dihydrochloride) was 11 µg/mL. Further, the “Solubility in Water” value in data set [1] (water, dihydrochloride) came out at 5630 µg/mL.
Regarding `Cl.N#Cc1cccc(-c2ccc3ncc(-c4cc(F)cc(F)c4)c(N4CCC(N)CC4)c3c2)c1O` [Compound A-HCl, 3-[4-(4-amino-piperidin-1-yl)-3-(3,5-difluoro-phenyl)-quinolin-6-yl]-2-hydroxy-benzonitrile monohydrochloride], in data set [2], the “XRPD after DVS analysis” value is recorded as “unchanged”. The reversible water uptake in data set [2] (between 2 and 95% RH) was roughly 4.5 % w/w; in data set [2] (between 15 and 75% RH), roughly 2.3 % w/w. Further, the “temperature up to which the solid is intact” value in data set [3] is “up to 200 °C”. Moreover, the solubility at 2 days is 2120 µg/mL in data set [1] (setting [4]); 10 µg/mL in data set [1] (setting [5]); 830 µg/mL in data set [1] (water, water, water, read-out: Solubility in Water).

Source of the values: patent publication US10464918B2, “Process of making somatostatin modulators” (Crinetics Pharmaceuticals, Inc., priority 2018, dated 2019).
